Results reported in patent publication US20090281166A1, “Treatment of Cancer by Inhibition of HSP27” (THE UNIVERSITY OF BRITISH COLUMBIA, priority 2008, published 2009).

Experiments:
[1] = tested on: hsp27; details: Tanaka et al., Int J Gynecol Cancer 2004; cited from earlier work
[2] = tested on: Akt; test: Western blot after siAkt or GSK690693C treatment in LNCaP cells; assay type: cell-based, human
Description: Twenty-four hours after culturing in 10 cm dishes at 7×10^5 cells per dish, Hsp27 siRNA (siHsp27) or scrambled siRNA (Scr) duplexes were transfected into cells. Briefly, the RNA duplex was diluted in Opti-MEN® serum-free medium and Oligofectamin (Invitrogen-Life Technologies). After 20 min, cells were transfected at 37? for 4-6 h and then were placed in standard medium. Forty-eight hours after transfection, cells were harvested and were analyzed in each experiment. To knockdown Akt, Akt1 siRNA (siAkt) duplexes (Cell signaling) were used. Twenty-four hours after transfection for 24 h, cells were harvested and then were analyzed as well. An siRNA duplex corresponding to the human Hsp27 site (sequence of one strand 5′-[…]-3′, SEQ ID NO: 2; Dharmacon, Lafayette, Colo.) was used. […]
Proteins (20-40 μg/lane) extracted in RIPA buffer from cells, were electrophoresed in SDS-polyacrylamide gels (SDS/PAGE) and transferred to PDVF membranes (Milipore, Bedford, Mass.) by a wet transfer method. […] Bands were detected by using an enhanced chemiluminescence Western blotting analysis system (Amersham Life Science, Arlington Heights, Ill.).
LNCaPHsp27 and LNCaP with empty vector (LNCaPmock) cells were assessed 24 h after culture. Cell lysates were collected 24 hours after culture and bands were detected with the indicated antibodies by Western blot assay. […]

[3] = tested on: PC-3 cells; test: Combination treatment with siHsp27 and LY-294002 in PC-3 cells; assay type: cell-based, human
Description: LY-294002 (2-(4-morpholinyl)-8-phenyl-4H-1-benzopyran-4-one) is a selective phosphatidylinositol 3-kinase (PI3K) inhibitor. Combination treatment with siHsp27 and LY-294002 treatment was assessed in PC-3 cells.

[4] = tested on: Hsp27; details: preclinical studies, cited from earlier work

CC(=O)O[C@H]1C(=O)[C@@]2(C)[C@H]([C@H](OC(=O)c3ccccc3)[C@]3(O)C[C@H](OC(=O)[C@H](O)[C@@H](NC(=O)c4ccccc4)c4ccccc4)C(C)=C1C3(C)C)[C@]1(OC(C)=O)CO[C@@H]1C[C@@H]2O [Paclitaxel]
hsp27 expression [1]: inhibitor of hsp27 expression

CCn1c(-c2nonc2N)nc2c(C#CC(C)(C)O)ncc(OC[C@H]3CCCNC3)c21 [GSK690693C]
phospho-Akt level (Western blot) [2]: up-regulation of phospho-Akt | phospho-GSK-3B and phospho-PEA15 levels (Western blot) [2]: dose-dependent decrease of phospho-GSK-3B and phospho-PEA15

O=c1cc(N2CCOCC2)oc2c(-c3ccccc3)cccc12 [LY-294002, 2-(4-morpholinyl)-8-phenyl-4H-1-benzopyran-4-one]
PTEN expression [3]: reduced PTEN expression | effect on growth inhibition by Hsp27 knockdown ([3]; combination with siHsp27): reduced the growth inhibitory effect by Hsp27 knockdown in dose-dependent manner

OGX-427: antisense oligonucleotide targeting hsp27, gggacgcggc gctcggtcat, SEQ ID No. 1, described in U.S. Pat. No. 7,101,991 (antisense GGGACGCGGCGCTCGGTCAT; listed as DNA, chemistry not given here; listed as Homo sapiens)
chemosensitization ([4]; combination with cytotoxic drugs): acts as a chemosensitizer in combination with several cytotoxic drugs including docetaxel | anti-tumor activity ([4]; single agent): has single agent anti-tumor activity | apoptosis in human cancer cell lines [4]: induces apoptosis in several human cancer cell lines | levels of Hsp27 [4]: significantly decreases levels of Hsp27
